Results from patent US6878722B2, “Substituted cycloalkyl P1′ hepatitis C virus inhibitors” (Bristol-Myers Squibb Company, priority 2002, dated 2005).

Legend:
[1] = tested on: HCV replicon in Huh7 cells; experiment: HCV replicon cell-based assay (FRET); conditions: Hepatitis C virus, Huh-7; HCV replicon; read-out: EC50 range
Summary of the method: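 Huh7 cells stably carrying a genotype 1b HCV replicon (IRES-neo-EMCV-IRES-NS3-NS5B) were treated with compound for 4 days at 37 °C in 0.5% DMSO final. Lysates containing 10 μM FRET peptide RET S1 were read kinetically at 340/490 nm to give NS3 protease activity, from which EC50 was derived.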

[2] = target: T1, HCV NS3/4A protease complex (BMS strain, genotype 1a) (Hepatitis C virus genotype 1a, UniProt P27958, C1454S); experiment: Recombinant HCV NS3/4A protease complex FRET peptide assay, BMS strain; type: biochemical; conditions: IC50 range, NS3/4A BMS Strain
T1 construct: DNA encoding the recombinant HCV NS3/4A protease complex (amino acids 1027 to 1711) for these strains; inferred from the pET21b vector and Ni-NTA purification; made in house; host or cells: Escherichia coli BL21 (DE3), pET21b
T1 sequence (P27958 1658-1714, looked up, stated change not applied): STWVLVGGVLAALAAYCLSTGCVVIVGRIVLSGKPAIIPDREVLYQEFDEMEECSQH
T1 sequence (P27958 1027-1657, looked up, stated change not applied): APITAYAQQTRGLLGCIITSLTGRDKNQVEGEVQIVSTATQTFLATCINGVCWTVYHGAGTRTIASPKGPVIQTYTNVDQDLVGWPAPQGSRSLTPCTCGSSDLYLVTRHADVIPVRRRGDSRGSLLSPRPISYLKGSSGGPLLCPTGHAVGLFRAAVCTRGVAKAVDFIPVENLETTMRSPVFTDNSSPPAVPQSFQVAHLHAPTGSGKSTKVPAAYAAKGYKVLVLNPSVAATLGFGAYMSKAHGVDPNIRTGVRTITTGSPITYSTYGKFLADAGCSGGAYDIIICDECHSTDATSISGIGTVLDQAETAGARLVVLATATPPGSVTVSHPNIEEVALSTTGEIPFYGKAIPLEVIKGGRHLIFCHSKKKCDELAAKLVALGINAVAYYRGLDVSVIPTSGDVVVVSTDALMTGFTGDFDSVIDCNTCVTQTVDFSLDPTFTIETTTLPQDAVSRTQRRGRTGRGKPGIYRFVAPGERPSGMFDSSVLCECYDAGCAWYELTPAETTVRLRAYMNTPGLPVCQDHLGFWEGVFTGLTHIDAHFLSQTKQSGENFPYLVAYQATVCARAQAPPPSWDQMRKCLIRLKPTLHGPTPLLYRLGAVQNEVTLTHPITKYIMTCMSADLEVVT
Summary of the method: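 Recombinant NS3/4A complex (aa 1027–1711) with C-terminal three-lysine tail, C1711G and C1454S, expressed in E. coli BL21(DE3) and purified by Ni-NTA then Superdex-S200. Inhibition of the complex from each strain measured in vitro by FRET peptide cleavage.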

Which EC50 [1] does the source give for `C=C[C@@H]1C[C@]1(NC(=O)[C@@H]1C[C@@H](Oc2cc(-c3ccccc3)nc3cc(OC)ccc23)CN1C(=O)[C@@H](NC(=O)OCCOC)C(C)(C)C)C(=O)NS(=O)(=O)C1(Cc2ccccc2)CC1` [Compound 104] here?
Its EC50 is 500 to 5000 nM.

What about the IC50 [2] of the same compound?
Its IC50 is 50 to 500 nM.

What does the source list for `C=C[C@@H]1C[C@]1(NC(=O)[C@@H]1C[C@@H](Oc2cc(-c3ccccc3)nc3cc(OC)ccc23)CN1C(=O)[C@@H](NC(=O)OCC(C)(C)C)C(C)(C)C)C(=O)NS(=O)(=O)C1(Cc2ccccc2)CC1` [Compound 105]?
EC50 [1]: 50 to 500 nM; IC50 [2]: < 50 nM

Which EC50 [1] does the source give for `C=C[C@@H]1C[C@]1(NC(=O)[C@@H]1C[C@@H](Oc2cc(-c3ccccc3)nc3cc(OC)ccc23)CN1C(=O)[C@@H](NC(=O)OCCF)C(C)(C)C)C(=O)NS(=O)(=O)C1(Cc2ccccc2)CC1` [Compound 106] here?
Its EC50 is 50 to 500 nM.

And the IC50 [2]?
The IC50 was less than 50 nM.

Which EC50 [1] does the source give for `C=C[C@@H]1C[C@]1(NC(=O)[C@@H]1C[C@@H](Oc2cc(-c3ccccc3)nc3cc(OC)ccc23)CN1C(=O)[C@@H](NC(=O)Oc1ccccc1OC)C(C)(C)C)C(=O)NS(=O)(=O)C1(Cc2ccccc2)CC1` [Compound 107] here?
The EC50 was 500 to 5000 nM.

And the IC50 [2]?
The IC50 was 50 to 500 nM.

Which results are given for `C=C[C@@H]1C[C@]1(NC(=O)[C@@H]1C[C@@H](Oc2cc(-c3ccccc3)nc3cc(OC)ccc23)CN1C(=O)[C@@H](NC(=O)Oc1cccc(C(F)(F)F)c1)C(C)(C)C)C(=O)NS(=O)(=O)C1(Cc2ccccc2)CC1` [Compound 108]?
EC50 [1]: 500 to 5000 nM; IC50 [2]: 50 to 500 nM

`C=C[C@@H]1C[C@]1(NC(=O)[C@@H]1C[C@@H](Oc2cc(-c3ccccc3)nc3cc(OC)ccc23)CN1C(=O)[C@@H](NC(=O)CC(C)(C)C)C(C)(C)C)C(=O)NS(=O)(=O)C1(Cc2ccccc2)CC1` [Compound 110] was tested. Which EC50 [1] did it give?
Its EC50 is 50 to 500 nM.

And the IC50 [2]?
Its IC50 is 50 to 500 nM.

Which EC50 [1] does the source give for `C=C[C@@H]1C[C@]1(NC(=O)[C@@H]1C[C@@H](Oc2cc(-c3ccccc3)nc3cc(OC)ccc23)CN1C(=O)[C@@H](NC(=O)COC)C(C)(C)C)C(=O)NS(=O)(=O)C1(Cc2ccccc2)CC1` [Compound 111] here?
Its EC50 is 50 to 500 nM.

What about the IC50 [2] of the same compound?
The IC50 was 50 to 500 nM.

What does the source list for `C=C[C@@H]1C[C@]1(NC(=O)[C@@H]1C[C@@H](Oc2cc(-c3ccccc3)nc3cc(OC)ccc23)CN1C(=O)[C@@H](NC(=O)CCOC)C(C)(C)C)C(=O)NS(=O)(=O)C1(Cc2ccccc2)CC1` [Compound 112]?
EC50 [1]: 50 to 500 nM; IC50 [2]: 50 to 500 nM

What does the source list for `C=C[C@@H]1C[C@]1(NC(=O)C1C[C@@H](Oc2cc(-c3ccccc3)nc3cc(OC)ccc23)CN1C(=O)[C@@H](NC(=O)[C@@H](OC)c1ccccc1)C(C)(C)C)C(=O)NS(=O)(=O)C1(CC2CC2)CC1` (some centres unmarked) [Compound 119]?
EC50 [1]: 50 to 500 nM; IC50 [2]: < 50 nM

How did the EC50 [1] turn out when `C=C[C@@H]1C[C@]1(NC(=O)C1CC(Oc2cc(-c3ccccc3)nc3cc(OC)ccc23)CN1C(=O)[C@@H](NC(=O)N(C)C(C)(C)C)C(C)(C)C)C(=O)NS(=O)(=O)C1(CC2CC2)CC1` (some centres unmarked) [Compound 120] was run?
The EC50 was 50 to 500 nM.

And the IC50 [2]?
The IC50 was less than 50 nM.

With `CCCC1(S(=O)(=O)NC(=O)[C@@]2(NC(=O)[C@@H]3C[C@@H](Oc4cc(-c5ccccc5)nc5cc(OC)ccc45)CN3C(=O)[C@@H](NC(=O)OC(C)(C)C)C(C)(C)C)CC2C2CC2)CC1` (some centres unmarked) [Compound 203] as the compound, how does the EC50 [1] read?
Its EC50 is 50 to 500 nM.

And the IC50 [2]?
Its IC50 is less than 50 nM.

For `COc1ccc2c(O[C@@H]3C[C@@H](C(=O)N[C@]4(C(=O)NS(=O)(=O)C5(Cc6ccccc6)CC5)CC4C4CC4)N(C(=O)[C@@H](NC(=O)OC(C)(C)C)C(C)(C)C)C3)cc(-c3ccccc3)nc2c1` (some centres unmarked) [Compound 204], which EC50 [1] is on record?
Its EC50 is 50 to 500 nM.

What about the IC50 [2] of the same compound?
The IC50 was 50 to 500 nM.

For `COc1ccc2c(O[C@@H]3C[C@@H](C(=O)N[C@]4(C(=O)NS(=O)(=O)C5(CC6CC6)CC5)CC4C4CC4)N(C(=O)[C@@H](NC(=O)OC(C)(C)C)C(C)(C)C)C3)cc(-c3ccccc3)nc2c1` (some centres unmarked) [Compound 205], which EC50 [1] is on record?
The EC50 was 50 to 500 nM.

What about the IC50 [2] of the same compound?
The IC50 was less than 50 nM.
